Measured values as given in US20090117598A1, “Method for identifying compounds that affect a transport of a protein through a membrane trafficking pathway” (priority 2004, published 2009).

Key:
Assay type in all cases: cell-based
Hela cells = assay: fluid phase endocytosis assay (BODIPY-FL dextran internalization); details: for number of endosomes relative to the control: BODIPY-FL dextran 20 min at 37° C., FIG. 3b; for integrated fluorescence intensity per cell relative to the control: data not shown
Experimental: For the fluid phase endocytosis assay, Hela cells in 96 well plates were washed and incubated for 120 min with the compounds in serum free buffered medium under tissue culture conditions. The medium was then replaced with serum-free buffered medium supplemented with 1 mg/ml BODIPY-FL-Dextran and 10 μM Syto60. Cells were incubated for 20 min at 37° C., then placed on a cooled block and washed extensively with ice cold phosphate buffered saline 10% w/v bovine serum albumin (Serva; Heidelberg, Germany). Plates were imaged by the Opera using 488/633 nm excitation, 3 μm focus height above the coverslip, 1000 ms or 500 ms exposure and 510 nm (50 nm bandpass) or 680 (50 nm bandpass) filters, respectively.
Fluid phase endocytosis was measured using custom written scripts in Metamorph. Cells were identified in the 633 nm excitation SYTO60 image, the nuclei segmented and cells counted. A mask was generated from this image and used to identify cells in overlay of the 488 nm BODIPY-FL dextran image, to create regions of interest around the cell borders and excise them from the image. Background was deducted from the processed BODIPY-FL dextran image that was thresholded to identify endosomes as individual regions of interest. Image pairs with less than 300 cells per field of view were rejected.
A fluid phase endocytosis assay measured the internalization of green fluorescent 40 kDa BODIPY-FI dextran. Dextrans are ideal endocytotic markers for labelling endosomes and macropinosomes. In this assay, endosomes labelled with fluorescent dextran by internalization were readily identified with the Opera instrument (FIG. 2b). Dextran internalization satisfied all the classical prerequisites for an internalization assay—it was temperature dependent, arrested at 4° C. (FIG. 2a), and required a source of energy in the medium. Endocytosis was quantified by analysis of paired images of cells labelled with green dextran and the SYTO60 nuclear counter stain. The analysis was validated on cells that had internalized green fluorescent dextran for 20 min at 37° C. or at 4° C. (FIG. 2c).
To identify compounds affecting GPCR internalization and not affecting housekeeping endocytosis, the kinase and phosphatase inhibitor collection was screened against the fluid phase endocytosis assay (FIG. 3b). The effect of the compounds was evaluated. Four compounds (staurosporine, tyrphostin 9, AG-879, GF 109203×) were identified that reduced the number of endosomes (FIG. 3b) and the integrated intensity per cell relative to the control (data not shown).

[1] = tested on: ETAR internalization and fluid phase endocytosis; assay: Overlap of the ETAR internalization and the fluid phase endocytosis screen; details: FIG. 3b
Source text: Overlap of the ETAR internalization and the fluid phase endocytosis screen was used to generate differential information from the two assays.

[2] = tested on: human endothelin A receptor; assay: ETAR (GPCR) internalization assay, ETAR-EGFP in stably transfected HEK 293 cells; details: for receptor trafficking morphology observed (visual screen of primary hits): stimulation with 40 nM endothelin-1, FIG. 4
Source text: A human endothelin A receptor cDNA clone in pCDNA3.1(−) (Invitrogen Carlsbad, USA) was excised via KpnI/HindIII and fused to the egfp coding sequence of the pEGFP-N1 vector (Clontech, Palo Alto USA) by splice overlap PCR using specific primers. The amplified fragment was digested via KpnI/EcoRV and ligated in the pCDNA3.1(−) vector digested with the same combination of restriction enzymes. The resulting pETAR-EGFP DNA was cloned, checked by sequencing and used for transfection of HEK 293 cells using standard protocols. A recombinant clone was obtained through several cycles of genetecin selection and limiting dilutions. For screening, cells were passed onto coverslip bottomed 96 well plates (Greiner; Longwood, USA, or Whatman; Brentford, UK) at a density of 4·10^3 cells/well for Hela and 2·10^4 cells/well for HEK293 cells, 48 hours in advance.
For the GPCR internalization assay, recombinant HEK cells grown were plated in 96 well plates and incubated overnight in DMEM/F12 containing 10% FBS. The plates were washed and the cells incubated for 120 min under tissue culture conditions with the compounds in 1% serum medium. The compound solutions were then exchanged for a solution with the same compound concentration and supplemented with 40 nM endothelin-1 and 10 μM Syto60. Cells were incubated for 120 min at 22° C. Plates were imaged by the Opera using 488/633 nm excitation, 3 μm focus height above the coverslip, 250 ms or 500 ms exposure and 510 nm (50 nm bandpass) or 680 (50 nm bandpass) filters, respectively. Typically, 5 image pairs (at 488 and 633 nm excitation) per well were acquired.
GPCR translocation was evaluated using scripts within the Acapella script player software environment of the Opera. The script measured translocation of the ETAR-EGFP fusion protein from the plasma membrane into recycling endosomes. Cells were first located in the 633 nm excitation SYTO60 image. Red fluorescent nuclei were identified by thresholding and edge seeking and then segmented to create a mask. The number of cells was counted and the nuclei mask used to generate a new cytoplasmic mask. Subsequently, each cell was individually segmented and cells with at least one bright recycling endosome were identified. Image analysis was performed on- and offline and analyses were rejected if the cell count was beneath 100 per field of view.
The endothelin A GPCR internalization screen was carried out using a stably transfected HEK 293 cell line expressing a fusion protein between the ETAR and a c-terminal copy of the enhanced green fluorescent protein. […] This internalization event was used as the basis for measuring trafficking of the receptor by image analysis. Serum deprived cells were stimulated with endothelin-1 at several concentrations and simultaneously counterstained with DRAQ5 or SYTO60, which are long wavelength excitable DNA and nucleic acid stains, respectively. The cells were stimulated for 120 min at 22-23° C., then imaged on the Opera automated confocal imaging reader. Images of the GFP and red counterstain fluorescence were automatically recorded and used to determine the number of cells where internalization of the receptor had occurred.
Cells were pre-treated with 10 μM compound before stimulation with 40 nM endothelin-1 to ensure a uniform and robust internalization response for the receptor.

[3] = secondary screen 0.1 μM to 50 μM, FIG. 5

SMILES | number of endosomes relative to the control (Hela cells) | integrated fluorescence intensity per cell relative to the control (Hela cells; BODIPY-FL dextran) | comparison of the responses in the ETAR internalization and fluid phase endocytosis assays [1] | receptor trafficking morphology observed (visual screen of primary hits) ([2]; 10 μM compound) | further results
CC(C)(C)c1cc(/C=C(\C#N)C(N)=S)cc(C(C)(C)C)c1O [AG-879] | reduced | reduced | – | – | –
CN(C)CCCn1cc(C2=C(c3c[nH]c4ccccc34)C(=O)NC2=O)c2ccccc21 [GF 109203X] | reduced | reduced | congruent in both assays | – | –
O=C1Nc2ccc(I)cc2/C1=C/c1cc(Br)c(O)c(Br)c1 [GW 5074] | – | – | large difference | – | hit classification in the primary screen ([2]; 10 μM compound, 40 nM endothelin-1, FIG. 3b): partial hit; concentration at which effect on GPCR internalization was seen (secondary screen) [2, 3]: 50 µM; effect on accumulation of the receptor in recycling endosomes ([2]; versus untreated endothelin-1 stimulated control cells, FIG. 4d): delayed accumulation of the receptor in the recycling endosomes
O=S(=O)(NCCNC/C=C/c1ccc(Br)cc1)c1cccc2cnccc12 [H-89] | – | – | large difference | enhanced accumulation in the recycling endosome | –
Cn1cc(C2=C(c3cn(CCCSC(=N)N)c4ccccc34)C(=O)NC2=O)c2ccccc21 [Ro 31-8220] | – | – | large difference | arrest of the receptor at the plasma membrane | –
CC[C@H](C)[C@H](NC(=O)[C@H](CC(=O)O)NC(=O)[C@H](CC(C)C)NC(=O)[C@H](Cc1c[nH]cn1)NC(=O)[C@@H]1CSSC[C@H](N)C(=O)N[C@@H](CO)C(=O)N[C@H]2CSSC[C@H](NC(=O)[C@H](CCC(=O)O)NC(=O)[C@H](CCCCN)NC(=O)[C@H](CC(=O)O)NC(=O)[C@H](CCSC)NC(=O)[C@H](CC(C)C)NC(=O)[C@H](CO)NC(=O)[C@H](CO)NC2=O)C(=O)N[C@@H](C(C)C)C(=O)N[C@@H](Cc2ccc(O)cc2)C(=O)N[C@@H](Cc2ccccc2)C(=O)N1)C(=O)N[C@H](C(=O)N[C@@H](Cc1c[nH]c2ccccc12)C(=O)O)[C@@H](C)CC [endothelin-1] | – | – | – | – | ETAR localization after endothelin-1 stimulation [2]: internalization of the fluorescent ETAR into an intracellular peri-centriolar compartment; EC50 ([2]; read-out: EC50 of endothelin stimulation (ETAR-EGFP internalization)): 3.4 nM
COC(=O)/C=C/c1cc(O)ccc1O [erbstatin analogue] | – | – | large difference | arrest of the receptor in small vesicular bodies | –
O=c1c(-c2ccc(O)cc2)coc2cc(O)cc(O)c12 [genistein] | increased | significantly increased | – | – | –
CN[C@@H]1C[C@H]2O[C@@](C)([C@@H]1OC)n1c3ccccc3c3c4c(c5c6ccccc6n2c5c31)C(=O)NC4 [staurosporine] | reduced | reduced | congruent in both assays | arrest of the receptor at the plasma membrane | endosomal pixel intensity (Hela cells; BODIPY-FL dextran): slightly increased; effective concentration for blocking GPCR internalization (secondary screen) [2, 3]: 100 nM
CC(C)(C)c1cc(C=C(C#N)C#N)cc(C(C)(C)C)c1O [tyrphostin 9] | reduced | reduced | – | – | –
